Results on one molecule are retold here after patent US11253589B2, “Modulation of the immune response” (priority 2007, dated 2022).

One assay deals with AHR-d mice. The experiment in a line: EAE induced with MOG35-55/CFA in AHR-d mice. The assay is classed as in vivo. The following applies: TCDD 1 μg/mouse. The method, then: C57BL/6 mice were given a single intraperitoneal (ip) dose of TCCD, and one day later EAE was induced by immunization with MOG35-55 in CFA. TCDD was also administered orally (1 μg/mouse) to determined whether an effective dose of this ligand can be delivered via oral administration and whether this dose is capable of reducing EAE development. EAE was induced by injecting the mice subcutaneously with […] of the MOG35-55 peptide ([…] (SEQ ID NO: 156)) in complete Freund adjuvant oil. In addition, the mice received 150 ng of pertussis toxin (Sigma-Aldrich) ip on days 0 and 2. Clinical signs of EAE were assessed according to the following score: 0, no signs of disease; 1, loss of tone in the tail; 2, hind limb paresis; 3, hind limb paralysis; 4, tetraplegia; 5, moribund.
To confirm that the effects on EAE were mediated by the activation of AHR, we used C57BL/6 mice carrying the d allele of the ahr gene (AHR-d mice). This allele codes for a mutant AHR with a 10 fold reduction in its affinity for TCDD and other ligands (Okey et al., Mol Pharmacol. 35, 823-30 (1989)) due to mutations in its ligand binding sites.

A further assay deals with AHR. The assay is described as follows: ChIP analysis of the interaction of AHR with CABS and NCABS in foxp3. The assay is classed as cell-based, mouse. The following applies: CD4+ T cells treated with TCDD for 90'. The procedure:
Briefly, cells were treated for 90′ with TCDD, fixed with 1% formaldehyde for 15 minutes and quenched with 0.125 M glycine. Chromatin was isolated and sheared to an average length of 300-500 bp by sonication. Genomic DNA (input) was prepared by treating aliquots of chromatin with RNase, proteinase K and heat for de-crosslinking, followed by ethanol precipitation. AHR-bound DNA sequences were immuno-precipitated with an AHR-specific antibody (Biomol SA-210). Crosslinks were reversed by incubation overnight at 65° C., and ChIP DNA was purified by phenol-chloroform extraction and ethanol precipitation. Quantitative PCR reactions were then performed using the following primer pairs:
Experimental Ct values were converted to copy numbers detected by comparison with a DNA standard curve run on the same PCR plates. Copy number values were then normalized for primer efficiency by dividing by the values obtained using Input DNA and the same primer pairs. Error bars represent standard deviations calculated from the triplicate determinations.

A further assay relates to zFoxp3. The experiment in a line: zFoxp3 expression in zebrafish embryos by real time PCR. The assay is classed as in vivo. Conditions: 3-day post-fertilization zebrafish embryos, TCDD in water, 72 hours. The procedure:
The expression of zFoxp3 was then analyzed by real-time PCR on FACS-sorted lymphocytes, myelomonocytes and erythrocytes (Traver et al., Nat Immunol 4, 1238-46 (2003)). RNA was extracted from cells using RNAeasy columns (Qiagen, Valencia, Calif., USA), complementary DNA was prepared as recommended (Bio-Rad Laboratories, Hercules, Calif., USA) and used as template for real time PCR. The expression of Foxp3 was quantified with specific primers and probes (Applied Biosystems, Foster City, Calif., USA) on the GeneAmp 5500 Sequence Detection System (Applied Biosystems). Expression was normalized to the expression of the housekeeping gene, GAPDH.
TCDD was also used to characterize the functional relationship between AHR and Foxp3.
In general terms: Real-time PCR tracks product formation cycle by cycle.

For assay [1], the system named is IgG serum antibodies to myelin antigens. The experiment in a line: Antigen microarray of serum antibody response to myelin. The assay is classed as in vivo, mouse. Conditions: TCDD-treated mice that did not develop EAE, FDR < 0.05. The procedure:
The antigens listed in Table 1 were spotted onto Epoxy slides (TeleChem, Sunnyvale, Calif., USA) as described (Quintana et al., Proc Natl Acad Sci USA 101 Suppl 2, 14615-21 (2004)). Antigens were spotted in replicates of 6, the microarrays were blocked for 1 h at 37° C. with 1% bovine serum albumin, and incubated for 2 hours at 37° C. with a 1:100 dilution of the test serum in blocking buffer. The arrays were then washed and incubated for 45 min at 37° C. with goat anti-mouse IgG Cy3-conjugated detection antibodies (Jackson ImmunoResearch Labs, West Grove, Pa., USA). The arrays were scanned with a ScanArray 4000X scanner (GSI Luminomics, Billerica, Mass., USA). Antigen reactivity was defined by the mean intensity of binding to the replicates of that antigen on the microarray. Raw data were normalized and analyzed using the GeneSpring software (Silicon Genetics, Redwood City, Calif., USA) with the non-parametric Wilcoxon-Mann-Whitney test, using the Benjamini and Hochberg method with a false discovery rate (FDR) of 0.05 to determine significance. The samples were clustered using a pairwise average linkage algorithm based on Spearman's rank correlation as a distance measure. […]

In assay [2] the test system is CD4+ CD62L+CD45RO- T cells. The assay is described as follows: In vitro differentiation of human naive CD4+ T cells, suppression and real time PCR. The assay is classed as cell-based. The method, then: To investigate the potential of AHR targeting for the induction of human Treg we activated purified naïve CD4^+ CD62L^+CD45RO^− T cells for healthy donors for 5 days with antibodies to CD3 and CD28 in the presence of TCDD 100 nM or TGFb1 2.5 ng/ml or both.
To study the functionality of the putative human Treg induced in the presence of TCDD we studied their suppressive activity of CD4^+ CD25^High and CD4^+CD25^Low T cells following 5 days of activation in the of TCDD or TGFb1 2.5 ng/ml or both.
To investigate the mechanism mediating the suppressive activity of the TCDD-induced Treg, we analyzed them by real time PCR for the expression of several genes that have been previously linked to the suppressive function of Treg. […] Accordingly, IL-10-specific blocking antibodies could interfere with the suppressive activity of Treg induced with TCDD, but not the of those induced with TGFb1 and TCDD (FIG. 42). Thus, TCDD-induced CD4^+CD25^High T cells are FoxP3^− regulatory cells whose suppressive activity is mediated, at least partially, via IL-10, resembling the phenotype of type 1 Treg (Roncarolo et al., Immunol Rev. 212, 28 (2006); Roncarolo and Gregori, Eur J Immunol. 38, 925 (2008)).

A further assay relates to mutant AHR. Conditions: Okey et al. 1989; cited from earlier work.

Turning to `Clc1cc2c(cc1Cl)Oc1cc(Cl)c(Cl)cc1O2` [TCDD, 2,3,7,8 tetrachlorodibenzo-p-dioxin], in the assay on AHR-d mice, the “Mean day of onset (Mean ± SD)” value turned out to be 17.3 ± 3.0 days, the “Mean maximum score (mean ± SD)” value was determined as 2.2 ± 1.4 and the “progression of EAE” value is “did not inhibit the progression of EAE”. For the same molecule, in the assay with AHR, the “AHR binding to NCABS-1, NCABS-3 in foxp3 (ChIP)” value is recorded as “No significant increase in AHR binding”; the “AHR binding to the CABS and NCABS-2 in foxp3 (ChIP)” value is “increased AHR binding to the CABS and NCABS-2”. The zFoxp3 expression entry in the assay with zFoxp3 was “dose-dependent increase in zFoxp3 expression”. Also, the “IgG serum antibodies to myelin antigens” value in assay [1] was “significant decrease in IgG serum antibodies to 97 myelin antigens”. Besides, the “induction of suppressive (regulatory) T cells” value in assay [2] (5 days activation with antibodies to CD3 and CD28, TGFb1 2.5 ng/ml or TCDD alone) was “generation of both CD4^+ CD25^High and CD4^+ CD25^Low functional human regulatory T cells”. Further, in assay [2] (TCDD 100 nM), the “IL-10 expression (real time PCR)” value is given as “increased levels of IL-10”. Also, the “FoxP3 expression (real time PCR)” value in assay [2] (TCDD 100 nM and TGFb1 2.5 ng/ml) was “significantly up-regulated”. Besides, the “FoxP3 expression (real time PCR)” value in assay [2] (TCDD 100 nM in the absence of TGFb1) is recorded as “marginal induction of FoxP3 expression”. Further, in assay [2] (TCDD 100 nM, antibodies to CD3 and CD28, 5 days), the “induction of CD4+ FoxP3+ T cells” value is “in some (FIG. 36) but not all human samples”. In addition, the “suppressive activity of T cells generated with TCDD” value in assay [2] (TCDD together with TGFb1 2.5 ng/ml) was “amplified in the presence of TGFb1”. Further, the “reduction in affinity of mutant AHR (d allele) for TCDD” value in the assay on mutant AHR is 10 fold.
